According to patent US7090991B2 (priority 1999, dated 2006):
Non-standard residues stand in square brackets, D forms with d. Residues, ends and D or L forms follow the SMILES beside them. No end group written: not given here.

Key:
ML1a melatonin receptor = target: T1, ML1a melatonin receptor (Homo sapiens, UniProt P48039); test: Two cell assay: MFα1-deleted MATα test cells with ML1a receptor (CY18596) + MATa detector cells, β-galactosidase (CPRG); type: cell-based; conditions: MFα1-deleted test cells expressing ML1a receptor
T1 construct: expressed in transfected cells; host or cells: S. cerevisiae MATα test cells (CY13858; CY18596, MFα1-deleted), plasmid CP2695
T1 sequence (P48039 whole entry): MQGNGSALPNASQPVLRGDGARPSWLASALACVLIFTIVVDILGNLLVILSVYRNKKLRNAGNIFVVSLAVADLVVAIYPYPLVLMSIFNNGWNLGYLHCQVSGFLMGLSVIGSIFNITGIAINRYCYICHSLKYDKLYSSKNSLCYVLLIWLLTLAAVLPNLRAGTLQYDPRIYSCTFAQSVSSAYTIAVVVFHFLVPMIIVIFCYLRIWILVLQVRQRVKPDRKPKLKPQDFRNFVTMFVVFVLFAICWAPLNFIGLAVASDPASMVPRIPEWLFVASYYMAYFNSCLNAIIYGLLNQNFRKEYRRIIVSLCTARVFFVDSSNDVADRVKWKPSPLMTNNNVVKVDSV
Experimental: (§1) Cultures of MATα test cells containing a heterologous ML1a receptor (CY1 3858) and MATa detector cells (a CY19 related strain containing the CP1212 FUS1p-LacZ plasmid) were grown overnight to stationary phase in media selective for the maintenance of the plasmids (SCD-leu media for the MATα cells and SCD-ura for the MATα cells). The cells were diluted with additional medium and permitted to recover from stationary phase for several hours. After determination of the optical density of the cultures, the cells were harvested by centrifugation, were washed once in non-selective synthetic medium, and were resuspended in non-selective medium at an approximate optical density (measured at 600 nm) of 0.4. […] The final volume of cells, culture medium and ligand was about 100 microliters. The cells were mixed using a plate-mixer and incubated at 30° C. […] The reaction was then stopped by the addition of 60 microliters 1 M sodium carbonate, and the absorbance at a wavelength of 575 nm was determined using a plate reader.
Using the experimental protocol described in Example 1, MATα test cells lacking the MFα1 gene and containing a plasmid encoding the ML1a receptor (CY18596) or a mock control plasmid (CY18594) were mixed with an equal number of MATa detector cells having a FUS1-LacZ plasmid. […]

melatonin ML1a receptor = target: T2, melatonin ML1a receptor (Homo sapiens, UniProt P48039); test: Two cell assay: MATα test cells with ML1a receptor (CY13858) + MATa FUS1p-LacZ detector cells, β-galactosidase (CPRG); type: cell-based
T2 construct: expressed in transfected cells; host or cells: S. cerevisiae MATα test cells (CY13858; CY18596, MFα1-deleted), plasmid CP2695
T2 sequence (P48039 whole entry): as above
Text: Binding of cognate ligand to the heterologous receptor in the test cell activates the receptor, causing a signal to be transduced through the pheromone response pathway, ultimately resulting in the secretion of α-factor from the cell. Specific receptors at the surface of the detector cells bind to the secreted α-factor and are activated by it, resulting in the transduction of a signal through the pheromone response pathway in these cells, and activating the transcription of the lacZ gene. The activity of the β-galactosidase expressed from this lacZ gene may be determined and thereby enables a determination of the activity of the pheromone response pathway in the first, test cells.
A strain of test cells was established by transforming (transfecting) a culture of S. cerevisiae yeast cells with the human1a (ML1a) receptor gene. […] After determination of the optical density of the cultures, the cells were harvested by centrifugation, were washed once in non-selective synthetic medium, and were resuspended in non-selective medium at an approximate optical density (measured at 600 nm) of 0.4. […] The reaction was then stopped by the addition of 60 microliters 1 M sodium carbonate, and the absorbance at a wavelength of 575 nm was determined using a plate reader.

[1] = system: MATα test cells lacking the ML1a receptor; test: Two cell assay: MFα1-deleted MATα test cells with mock plasmid (CY18594) + MATa detector cells, β-galactosidase (CPRG); type: cell-based, S. cerevisiae; conditions: in the presence of melatonin
Experimental: as §1

[2] = system: Growth Hormone Secretagoge Receptor; test: Test cell + detector cell (FDG), GHSR; type: cell-based, sheep; conditions: CY18879, CP6416, saturating or near saturating ligand
Experimental: (§2) A strain of test cells was established by transforming (transfecting) a culture of S. cerevisiae yeast cells with the human1a (ML1a) receptor gene. Cultures of MATα test cells containing a heterologous ML1a receptor (CY1 3858) and MATa detector cells (a CY19 related strain containing the CP1212 FUS1p-LacZ plasmid) were grown overnight to stationary phase in media selective for the maintenance of the plasmids (SCD-leu media for the MATα cells and SCD-ura for the MATα cells). The cells were diluted with additional medium and permitted to recover from stationary phase for several hours. After determination of the optical density of the cultures, the cells were harvested by centrifugation, were washed once in non-selective synthetic medium, and were resuspended in non-selective medium at an approximate optical density (measured at 600 nm) of 0.4. […] The final volume of cells, culture medium and ligand was about 100 microliters. The cells were mixed using a plate-mixer and incubated at 30° C. […] The reaction was then stopped by the addition of 60 microliters 1 M sodium carbonate, and the absorbance at a wavelength of 575 nm was determined using a plate reader. […]

[3] = system: Growth Hormone Secretagoge Receptor; test: Test cell + FUS1p-lacZ plasmid, GHSR; type: cell-based, sheep; conditions: CY18879, CP6416, saturating or near saturating ligand
Experimental: (§3) Detection of LacZ activity in the detector cells (data shown in Table 6) was performed essentially as described in the experimental protocol of Example 1, with the exception that 20 microliters of a solution containing 0.5 mM fluorescein di-β-D-galactopyranoside (FDG), 125 mM PIPES pH 7.2, 1.25% Triton X-100 was added instead of the 20 microliters of CPRG solution utilized in Example 1. Following addition of the FDG solution, the reaction was incubated for 30 minutes at 37° C. After stopping the reaction with 20 microliters of 1 M Na2CO3, the fluorescence was determined utilizing a 96-well plate reader with an excitation wavelength of 485 nm and an emission wavelength of 535 nm.

R-VIP-1 = test: Test cell + FUS1p-lacZ plasmid, R-VIP-1; type: cell-based, Rat; conditions: CY18636, CP4110, saturating or near saturating ligand
Experimental: as §3

R-VIP-1 Rat = test: Test cell + detector cell (FDG), R-VIP-1; type: cell-based; conditions: CY18636, CP4110, saturating or near saturating ligand
Experimental: as §2

Bradykinin 2 Receptor [4] = target: T3, Bradykinin 2 Receptor (Homo sapiens, UniProt P30411); test: Test cell + detector cell (FDG), BK2; type: cell-based; conditions: CY18778, CP1930, saturating or near saturating ligand
T3 construct: expressed in transfected cells; host or cells: S. cerevisiae MATα test cells, plasmid CP1930
T3 sequence (P30411 1-391): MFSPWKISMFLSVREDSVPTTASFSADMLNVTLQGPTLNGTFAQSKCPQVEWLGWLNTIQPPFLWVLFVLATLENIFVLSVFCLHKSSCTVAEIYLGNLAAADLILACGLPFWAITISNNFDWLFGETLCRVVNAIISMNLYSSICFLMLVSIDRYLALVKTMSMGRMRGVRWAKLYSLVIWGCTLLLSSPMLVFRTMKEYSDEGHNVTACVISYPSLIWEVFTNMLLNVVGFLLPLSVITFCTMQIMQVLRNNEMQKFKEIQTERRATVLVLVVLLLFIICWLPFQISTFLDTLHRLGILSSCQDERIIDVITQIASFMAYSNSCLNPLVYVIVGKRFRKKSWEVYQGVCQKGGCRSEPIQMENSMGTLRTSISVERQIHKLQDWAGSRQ
Experimental: as §2

Bradykinin 2 Receptor [5] = target: T3, Bradykinin 2 Receptor; test: Test cell + FUS1p-lacZ plasmid, BK2; type: cell-based; conditions: CY18778, CP1930, saturating or near saturating ligand
Experimental: as §3

COc1ccc2[nH]cc(CCNC(C)=O)c2c1 [melatonin]
β-galactosidase activity (ML1a melatonin receptor; in the presence of melatonin): approximately 2.1 units | increase in β-galactosidase activity (ML1a melatonin receptor; melatonin versus no ligand): ~5.2 fold | β-galactosidase activity in the detector cells (melatonin ML1a receptor; in the presence of melatonin, no ligand approximately 1.1 units): approximately 1.8 units | induction in β-galactosidase activity (melatonin ML1a receptor; melatonin versus no ligand): approximately 1.6 fold | α-factor secretion by test cells as detected by detector cells [1]: did not secrete any additional α-factor

C[C@H](NC(=O)[C@@H](Cc1c[nH]c2ccccc12)NC(=O)[C@@H](N)Cc1c[nH]cn1)C(=O)N[C@@H](Cc1c[nH]c2ccccc12)C(=O)N[C@H](Cc1ccccc1)C(=O)N[C@@H](CCCCN)C(N)=O [GHRP-6] (H-H[dW]AW[dF]K-NH2)
Fold induction, Test cell + Detector Cell [2]: 4 fold | Fold induction, Test Cell + FUS1p-lacZ plasmid [3]: 9 fold

NC(=O)CC[C@@H]1NC(=O)[C@H](Cc2ccccc2)NC(=O)[C@H](Cc2ccc(O)cc2)NC(=O)[C@@H](N)CSSC[C@@H](C(=O)N2CCC[C@H]2C(=O)N[C@@H](CCCN=C(N)N)C(=O)NCC(N)=O)NC(=O)[C@H](CC(N)=O)NC1=O [Vasopressin]
Fold induction, Test Cell + FUS1p-lacZ plasmid (R-VIP-1): 20 fold | Fold induction, Test cell + Detector Cell (R-VIP-1 Rat): 8 fold

RPPGFSPFR [Bradykinin]
Fold induction, Test cell + Detector Cell (Bradykinin 2 Receptor [4]): 84 fold | Fold induction, Test Cell + FUS1p-lacZ plasmid (Bradykinin 2 Receptor [5]): 101 fold
